Reference: ChEMBL document CHEMBL1255495, “Experimental conditions that enhance potency of an antibacterial oligo-acyl-lysyl” (2010)
≈ marks a conversion by molar mass, not a printed value. Calls of active or inactive are those of the source. The rule behind the calls is not given here.

Legend:
Listeria monocytogenes [1] = assay: Antibacterial activity against Listeria monocytogenes ATCC 19115 after 24 hrs at 25 degC by microdilution method; type: functional; settings: ATCC 19115, 24 h
Escherichia coli [2] = assay: Antibacterial activity against Escherichia coli O157:H7 ATCC 43894 at pH 3.5 after 24 hrs by microdilution method; type: functional; settings: O157:H7 ATCC 43894, 24 h
Escherichia coli [3] = assay: Antibacterial activity against Escherichia coli O157:H7 ATCC 43894 after 24 hrs by microdilution method in presence of 170 mM NaCl; type: functional; settings: O157:H7 ATCC 43894, 24 h
Staphylococcus aureus [4] = assay: Antibacterial activity against methicillin-resistant Staphylococcus aureus isolate 15903 after 24 hrs by microdilution method in presence of 515 mM NaCl; type: functional; settings: isolate 15903, 24 h
Lipid bilayer [5] = assay: Binding affinity to phospholipid membrane model at pH 7 by surface plasmon resonance in presence of 140 mM NaCl
Escherichia coli [6] = assay: Antibacterial activity against Escherichia coli O157:H7 ATCC 43894 after 24 hrs by microdilution method in presence of 515 mM NaCl; type: functional; settings: O157:H7 ATCC 43894, 24 h
Escherichia coli [7] = assay: Antibacterial against Escherichia coli O157:H7 ATCC 43894 at pH 8.5 after 24 hrs at 48 degC by microdilution method in presence of 85 mM NaCl; type: functional; settings: O157:H7 ATCC 43894, 24 h
Listeria monocytogenes [8] = assay: Antibacterial activity against Listeria monocytogenes ATCC 19115 after 24 hrs by microdilution method in presence of 1030 mM NaCl; type: functional; settings: ATCC 19115, 24 h
Escherichia coli [9] = assay: Antibacterial activity against Escherichia coli O157:H7 ATCC 43894 at pH 5.5 after 24 hrs by microdilution method; type: functional; settings: O157:H7 ATCC 43894, 24 h
Listeria monocytogenes [10] = assay: Antibacterial activity against Listeria monocytogenes ATCC 19115 after 24 hrs at 37 degC by microdilution method; type: functional; settings: ATCC 19115, 24 h
Staphylococcus aureus [11] = assay: Antibacterial activity against methicillin-resistant Staphylococcus aureus isolate 15903 at pH 8.5 after 24 hrs by microdilution method; type: functional; settings: isolate 15903, 24 h
Listeria monocytogenes [12] = assay: Antibacterial activity against Listeria monocytogenes ATCC 19115 after 24 hrs by microdilution method in presence of 515 mM NaCl; type: functional; settings: ATCC 19115, 24 h
Listeria monocytogenes [13] = assay: Antibacterial activity against Listeria monocytogenes ATCC 19115 after 24 hrs by microdilution method in presence of 170 mM NaCl; type: functional; settings: ATCC 19115, 24 h
Listeria monocytogenes [14] = assay: Antibacterial activity against Listeria monocytogenes ATCC 19115 after 24 hrs by microdilution method in presence of 260 mM NaCl; type: functional; settings: ATCC 19115, 24 h
Staphylococcus aureus [15] = assay: Antibacterial activity against methicillin-resistant Staphylococcus aureus isolate 15903 after 24 hrs by microdilution method in presence of 1030 mM NaCl; type: functional; settings: isolate 15903, 24 h
Staphylococcus aureus [16] = assay: Antibacterial activity against Staphylococcus aureus ATCC 29213 at pH 7 after 24 hrs by microdilution method; type: functional; settings: ATCC 29213, 24 h
Lipid bilayer [17] = assay: Binding affinity to phospholipid membrane model at pH 8.5 by surface plasmon resonance in presence of 140 mM NaCl
Escherichia coli [18] = assay: Antibacterial activity against Escherichia coli O157:H7 ATCC 43894 at pH 8.5 after 24 hrs by microdilution method; type: functional; settings: O157:H7 ATCC 43894, 24 h
Staphylococcus aureus [19] = assay: Antibacterial activity against methicillin-resistant Staphylococcus aureus isolate 15903 after 24 hrs by microdilution method in presence of 260 mM NaCl; type: functional; settings: isolate 15903, 24 h
Listeria monocytogenes [20] = assay: Antibacterial activity against Listeria monocytogenes ATCC 19115 after 24 hrs at 48 degC by microdilution method; type: functional; settings: ATCC 19115, 24 h
Staphylococcus aureus [21] = assay: Antibacterial activity against methicillin-resistant Staphylococcus aureus isolate 15903 after 24 hrs at 48 degC by microdilution method; type: functional; settings: isolate 15903, 24 h
Escherichia coli [22] = assay: Antibacterial activity against Escherichia coli O157:H7 ATCC 43894 after 24 hrs by microdilution method in presence of 80 mM MgCl2; type: functional; settings: O157:H7 ATCC 43894, 24 h
Listeria monocytogenes [23] = assay: Antibacterial activity against Listeria monocytogenes ATCC 19115 at pH 8.5 after 24 hrs by microdilution method; type: functional; settings: ATCC 19115, 24 h
Escherichia coli [24] = assay: Antibacterial activity against Escherichia coli O157:H7 ATCC 43894 assessed as reduction in bacterial population at 0.01 to 10 uM up to 15 mins by time-kill assay; type: functional
Staphylococcus aureus [25] = assay: Antibacterial activity against methicillin-resistant Staphylococcus aureus ATCC 43300 at pH 7 after 24 hrs by microdilution method; type: functional; settings: ATCC 43300, 24 h
Listeria monocytogenes [26] = assay: Antibacterial activity against Listeria monocytogenes ATCC 19115 at pH 3.5 after 24 hrs by microdilution method; type: functional; settings: ATCC 19115, 24 h
Staphylococcus aureus [27] = assay: Ratio of MIC for methicillin-resistant Staphylococcus aureus isolate 15903 in presence of 85 mM NaCl to MIC for methicillin-resistant Staphylococcus aureus isolate 15903 at pH 8.5 after 24 hrs at 48 degC in presence of 85 mM NaCl; type: functional
Escherichia coli [28] = assay: Antibacterial activity against Escherichia coli O157:H7 ATCC 43894 after 24 hrs at 25 degC by microdilution method; type: functional; settings: O157:H7 ATCC 43894, 24 h
Escherichia coli [29] = assay: Ratio of MIC for Escherichia coli O157:H7 ATCC 43894 in presence of 85 mM NaClsto MIC for Escherichia coli O157:H7 ATCC 43894 at pH 8.5 after 24 hrs at 48 degC in presence of 85 mM NaCl; type: functional

CCCCCCCCCCCC(=O)N[C@@H](CCCCN)C(=O)NCCCCCCCC(=O)N[C@@H](CCCCN)C(=O)NCCCCCCCC(=O)N[C@@H](CCCCN)C(=O)NCCCCCCCC(=O)N[C@@H](CCCCN)C(=O)NCCCCCCCC(=O)N[C@@H](CCCCN)C(=O)NCCCCCCCC(=O)N[C@@H](CCCCN)C(=O)NCCCCCCCC(=O)N[C@@H](CCCCN)C(=O)NCCCCCCCC(=O)N[C@@H](CCCCN)C(N)=O
MIC (Listeria monocytogenes [1]): 3.1 µM (≈ 6.86 µg/mL) | MIC (Escherichia coli [2]): > 50 µM | MIC (Escherichia coli [3]): 3.1 µM | MIC (Staphylococcus aureus [4]): > 50 µM | Activity (Lipid bilayer [5]): inactive | MIC (Escherichia coli [6]): 6.3 µM | MIC (Escherichia coli [7]): 0.2 µM | MIC (Listeria monocytogenes [8]): 12.5 µM | MIC (Escherichia coli [9]): 3.1 µM (≈ 6.86 µg/mL) | MIC (Listeria monocytogenes [10]): 1.6 µM (≈ 3.54 µg/mL) | MIC (Staphylococcus aureus [11]): 1.6 µM (≈ 3.54 µg/mL) | MIC (Listeria monocytogenes [12]): 6.3 µM | MIC (Listeria monocytogenes [13]): 3.1 µM | MIC (Listeria monocytogenes [14]): 3.1 µM | MIC (Staphylococcus aureus [15]): > 50 µM | MIC (Staphylococcus aureus [16]): 50 µM (≈ 111 µg/mL) | Activity (Lipid bilayer [17]): Active | MIC (Escherichia coli [18]): 1.6 µM (≈ 3.54 µg/mL) | MIC (Staphylococcus aureus [19]): > 50 µM | MIC (Listeria monocytogenes [20]): 1.6 µM (≈ 3.54 µg/mL) | MIC (Staphylococcus aureus [21]): 3.1 µM (≈ 6.86 µg/mL) | MIC (Escherichia coli [22]): 12.5 µM | MIC (Listeria monocytogenes [23]): 0.8 µM (≈ 1.77 µg/mL) | inhibition (INH) (Escherichia coli [24]): 99% | MIC (Staphylococcus aureus [25]): 50 µM (≈ 111 µg/mL) | MIC (Listeria monocytogenes [26]): > 50 µM | Ratio (Staphylococcus aureus [27]): 16 | MIC (Escherichia coli [28]): 3.1 µM (≈ 6.86 µg/mL) | Ratio (Escherichia coli [29]): 16
